Numbers after ± are expanded uncertainties.
What was measured:
[1] = 298.15 K; 101.33 kPa; Liquid; Vibrating tube method
[2] = molar heat capacity at constant pressure; conditions: 298.15 K; 101.33 kPa; Liquid; Large sample (1 g) DSC
[3] = xn = mol fraction of the nth substance listed; conditions: 298.15 K, 100 kPa, Liquid, Vibrating tube method
[4] = molar heat capacity at constant pressure; xn = mol fraction of the nth substance listed; conditions: 298.15 K, 100 kPa, Liquid, Large sample (1 g) DSC

## CCC(O)CO (stereo not drawn) [1,2-butanediol]
[1]
  mass density: 998.505 ± 0.068 kg/m3

## CCCC(O)CO (stereo not drawn) [1,2-pentanediol]
[1]
  mass density: 966.678 ± 3.2 kg/m3
[2]
  molar heat capacity at constant pressure: 266.29 ± 4.6 J/K/mol

## CCCC(O)CO (stereo not drawn) [1,2-pentanediol] + CO
[3]; x1 = 0.073
  mass density: 832.04 ± 0.31 kg/m3
[3]; x1 = 0.31
  mass density: 886.031 ± 0.67 kg/m3
[3]; x1 = 0.5238
  mass density: 929.073 ± 1.2 kg/m3
[3]; x1 = 0.6142
  mass density: 931.181 ± 1.5 kg/m3
[3]; x1 = 0.7047
  mass density: 946.883 ± 1.8 kg/m3
[3]; x1 = 0.8127
  mass density: 950.977 ± 2.3 kg/m3
[3]; x1 = 0.914
  mass density: 961.834 ± 2.8 kg/m3
[3]; x1 = 1
  mass density: 966.678 ± 3.2 kg/m3
[4]; x1 = 0.073
  molar heat capacity at constant pressure: 94.77 ± 1.5 J/K/mol
[4]; x1 = 0.1773
  molar heat capacity at constant pressure: 114.15 ± 1.8 J/K/mol
[4]; x1 = 0.31
  molar heat capacity at constant pressure: 138.7 ± 2.1 J/K/mol
[4]; x1 = 0.3868
  molar heat capacity at constant pressure: 152.56 ± 2.4 J/K/mol
[4]; x1 = 0.5238
  molar heat capacity at constant pressure: 178.04 ± 2.8 J/K/mol
[4]; x1 = 0.6142
  molar heat capacity at constant pressure: 194.86 ± 3 J/K/mol
[4]; x1 = 0.7047
  molar heat capacity at constant pressure: 211.81 ± 3.3 J/K/mol
[4]; x1 = 0.8127
  molar heat capacity at constant pressure: 231.91 ± 3.6 J/K/mol
[4]; x1 = 0.914
  molar heat capacity at constant pressure: 250.63 ± 3.9 J/K/mol
[4]; x1 = 1
  molar heat capacity at constant pressure: 266.29 ± 4.1 J/K/mol

## CC(O)CO (stereo not drawn) [1,2-propanediol]
[1]
  mass density: 1032.55 ± 0.11 kg/m3
[2]
  molar heat capacity at constant pressure: 191.71 ± 3.2 J/K/mol

## CC(O)CO (stereo not drawn) [1,2-propanediol] + CO
[4]; x1 = 0.0743
  molar heat capacity at constant pressure: 89.47 ± 1.4 J/K/mol
[4]; x1 = 0.2305
  molar heat capacity at constant pressure: 106.48 ± 1.6 J/K/mol
[4]; x1 = 0.3354
  molar heat capacity at constant pressure: 118.08 ± 1.8 J/K/mol
[4]; x1 = 0.4104
  molar heat capacity at constant pressure: 126.35 ± 2 J/K/mol
[4]; x1 = 0.51
  molar heat capacity at constant pressure: 137.4 ± 2.1 J/K/mol
[4]; x1 = 0.6498
  molar heat capacity at constant pressure: 152.77 ± 2.4 J/K/mol
[4]; x1 = 0.7273
  molar heat capacity at constant pressure: 161.34 ± 2.5 J/K/mol
[4]; x1 = 0.7821
  molar heat capacity at constant pressure: 167.69 ± 2.6 J/K/mol
[4]; x1 = 0.8985
  molar heat capacity at constant pressure: 180.45 ± 2.8 J/K/mol
[4]; x1 = 1
  molar heat capacity at constant pressure: 191.71 ± 3 J/K/mol

## CO [methanol]
[1]
  mass density: 786.585 ± 0.24 kg/m3
[2]
  molar heat capacity at constant pressure: 81.37 ± 1.4 J/K/mol

## CO [methanol] + CC(O)CO
[4]; x2 = 0
  molar heat capacity at constant pressure: 81.37 ± 1.3 J/K/mol

## CO [methanol] + CCCC(O)CO
[3]; x2 = 0
  mass density: 786.585 ± 0.24 kg/m3
[4]; x2 = 0
  molar heat capacity at constant pressure: 81.37 ± 1.3 J/K/mol
